# Laboratory results as given in patent US10253039B2, “Inhibitors of bacterial DNA gyrase with efficacy against gram-negative bacteria” (priority 2014, dated 2019).
# Where two headings read alike, the source gives them in different places.
# What was measured:
# Type in all cases: cell-based
# [1] = tested on: Streptococcus pyogenes; test: MIC, 20-strain panel
# Protocol: (§1) A microdilution method in 96-well plates was used and the MIC protocol established by the Clinical Laboratory Standards Institute was followed. From a growing subculture, a 1:10000 inoculum of each strain in Luria-Bertani media was prepared and aliquoted 100 μL in 4 columns of wells, except for the top row wells, which contained 200 μL of inoculum. A solution of gyramide C2 was aliquoted into 3 of the wells containing 200 μL and DMSO was added to the 4th well. The liquid in each of wells was mixed with a multi-channel pipet and 100 μL was transferred to the next well and mixed. The 2-fold dilution was continued down the 96-well plate until 100 μL was left, which was discarded. The plates were incubated at 37° C. with shaking for 16-18 hours. The MIC was determined as the lowest concentration that inhibited growth and had no turbidity by visual inspection.
# (§2) Minimum inhibitory concentrations of various gyramide compounds against 20 strains of bacteria were determined using the procedure described above.
# [2] = tested on: E. coli MG1655; test: MIC, 20-strain panel; settings: Escherichia coli, read-out: MIC
# Protocol: as §1, §2
# [3] = tested on: Staphylococcus epidermidis; test: MIC, 20-strain panel
# Protocol: as §1, §2
# [4] = tested on: Staphylococcus saprophyticus subsp. saprophyticus; test: MIC, 20-strain panel
# Protocol: as §1, §2
# [5] = tested on: Staphylococcus aureus subsp. aureus; test: MIC, 20-strain panel; settings: read-out: MIC
# Protocol: as §1, §2
# [6] = tested on: E. coli JW5503 (deltolC); test: MIC, 20-strain panel; settings: Escherichia coli
# Protocol: as §1, §2
# [7] = tested on: Streptococcus agalactiae; test: MIC, 20-strain panel
# Protocol: as §1, §2
# [8] = tested on: Shigella flexneri; test: MIC, 20-strain panel
# Protocol: as §1, §2
# [9] = tested on: Klebsiella pneumoniae subsp. pneumoniae; test: MIC, 20-strain panel
# Protocol: as §1, §2
# [10] = tested on: Salmonella enterica subsp. enterica typhimurium; test: MIC, 20-strain panel
# Protocol: as §1, §2
# [11] = tested on: E. coli BW25113; test: MIC, microdilution in 96-well plates; settings: Escherichia coli, read-out: MIC
# Protocol: as §1, §2
# [12] = tested on: Edwardsiella tarda; test: MIC, microdilution in 96-well plates
# Protocol: as §1, §2
# [13] = Staphylococcus aureus subsp. aureus
# [14] = Klebsiella pneumoniae subsp. pneumoniae
# [15] = Salmonella enterica subsp. enterica Typhimurium
# [16] = H: Staphylococcus aureus subsp. aureus
# [17] = E: Klebsiella pneumoniae subsp. pneumoniae
# [18] = F: Salmonella enterica subsp. enterica Typhimurium
Structure (SMILES),MIC [1],"MIC ([2]; MG1655, E. coli MG1655)",MIC [3],MIC [4],"MIC [5, 13]",MIC ([6]; E. coli JW5503 (deltolC)),MIC [7],MIC [8],"MIC [9, 14]","MIC [10, 15]","MIC ([11]; BW25113, E. coli BW25113)",MIC [12],"MIC ([2]; MG1655, A: E. coli MG1655)","MIC [5, 16]",MIC ([6]; C: E. coli JW5503 (deltolC)),MIC ([8]; G: Shigella flexneri),"MIC [9, 17]","MIC [10, 18]","MIC ([11]; BW25113, B: E. coli BW25113)",MIC ([12]; D: Edwardsiella tarda)
CC(C)Oc1ccc(CN2CC[C@@H](NS(=O)(=O)c3cccnc3)C2)cc1 [Compound 167],> 8 µg/mL,> 8 µg/mL,> 8 µg/mL,> 8 µg/mL,> 8 µg/mL,> 8 µg/mL,> 8 µg/mL,> 8 µg/mL,> 8 µg/mL,> 8 µg/mL,> 8 µg/mL,> 8 µg/mL,,,,,,,,
CC(C)Oc1ccc(CN2CC[C@@H](NS(=O)(=O)c3cc(S(C)(=O)=O)ccc3Cl)C2)cc1 [Compound 148],> 8 µg/mL,> 8 µg/mL,> 8 µg/mL,> 8 µg/mL,> 8 µg/mL,8 µg/mL,> 8 µg/mL,> 8 µg/mL,> 8 µg/mL,> 8 µg/mL,> 8 µg/mL,> 8 µg/mL,,,,,,,,
CC(=O)c1cc(S(=O)(=O)N[C@@H]2CCN(Cc3ccc(OC(C)C)cc3)C2)ccc1C [Compound 1],> 8 µg/mL,,> 8 µg/mL,> 8 µg/mL,,,> 8 µg/mL,,,,,,> 8 µg/mL,> 8 µg/mL,> 8 µg/mL,> 8 µg/mL,> 8 µg/mL,> 8 µg/mL,> 8 µg/mL,> 8 µg/mL
O=S(=O)(N[C@@H]1CCN(Cc2ccc(OC3CCOCC3)cc2)C1)c1cccc(C(F)(F)F)c1 [Compound 38],> 8 µg/mL,,> 8 µg/mL,> 8 µg/mL,,,> 8 µg/mL,,,,,,> 8 µg/mL,> 8 µg/mL,1 µg/mL,> 8 µg/mL,> 8 µg/mL,> 8 µg/mL,> 8 µg/mL,> 8 µg/mL
N#Cc1cc(S(=O)(=O)N[C@@H]2CCN(Cc3ccc(OC4CC4)cc3)C2)ccc1Cl [Compound 119],> 8 µg/mL,,> 8 µg/mL,> 8 µg/mL,,,> 8 µg/mL,,,,,,> 8 µg/mL,> 8 µg/mL,> 8 µg/mL,> 8 µg/mL,> 8 µg/mL,> 8 µg/mL,> 8 µg/mL,> 8 µg/mL
O=S(=O)(N[C@@H]1CCN(Cc2ccc(-n3ccnn3)cc2)C1)c1cccc(C(F)(F)F)c1 [Compound 3],> 8 µg/mL,,> 8 µg/mL,> 8 µg/mL,,,> 8 µg/mL,,,,,,> 8 µg/mL,> 8 µg/mL,4 µg/mL,> 8 µg/mL,> 8 µg/mL,> 8 µg/mL,> 8 µg/mL,> 8 µg/mL
CC(=O)c1cc(S(=O)(=O)N[C@@H]2CCN(Cc3ccc(-c4ccccc4)cc3)C2)ccc1C [Compound 68],> 8 µg/mL,,8 µg/mL,> 8 µg/mL,,,> 8 µg/mL,,,,,,> 8 µg/mL,> 8 µg/mL,8 µg/mL,> 8 µg/mL,> 8 µg/mL,> 8 µg/mL,> 8 µg/mL,> 8 µg/mL
N#Cc1cccc(S(=O)(=O)N[C@@H]2CCN(Cc3cn(-c4ccccc4)nn3)C2)c1 [Compound 124],> 8 µg/mL,,> 8 µg/mL,> 8 µg/mL,,,> 8 µg/mL,,,,,,> 8 µg/mL,> 8 µg/mL,> 8 µg/mL,> 8 µg/mL,> 8 µg/mL,> 8 µg/mL,> 8 µg/mL,> 8 µg/mL
Cn1ccc(-c2ccc(CN3CC[C@@H](NS(=O)(=O)c4cccc(C(F)(F)F)c4)C3)cc2)n1 [Compound 171],> 8 µg/mL,> 8 µg/mL,> 8 µg/mL,> 8 µg/mL,> 8 µg/mL,1 µg/mL,> 8 µg/mL,> 8 µg/mL,> 8 µg/mL,> 8 µg/mL,> 8 µg/mL,> 8 µg/mL,,,,,,,,
CC(C)Oc1ccc(CN2CC[C@@H](NS(=O)(=O)c3cc(F)cc(C(F)(F)F)c3)C2)cc1 [Compound 78],> 8 µg/mL,,> 8 µg/mL,> 8 µg/mL,,,> 8 µg/mL,,,,,,> 8 µg/mL,> 8 µg/mL,~8 µg/mL,> 8 µg/mL,> 8 µg/mL,> 8 µg/mL,> 8 µg/mL,> 8 µg/mL
